Test results: patent publication US5480905A, “Benzodioxane derivatives” (Chugai Seiyaku Kabushiki Kaisha, priority 1991, dated 1996)
Counter-ions that a name gives are not always drawn.

How the values were obtained:
serotonin 2 receptor = molecular target: T1, serotonin 2 receptor (Rattus norvegicus, UniProt P14842); experiment: Serotonin 2 receptor binding experiment (3H-ketancerine); settings: rat cortex and hippocampal tissue; 0.5 nM 3H-ketancerine; IC50 in M; read-out: -logIC50 5-HT2 (converted)
T1 construct: the cortex and hippocampal tissue were extracted from the brain; from tissue; host or cells: brain cortex and hippocampus of 7-week-old male S.D. rats, washed membrane homogenate
T1 sequence (P14842 whole entry): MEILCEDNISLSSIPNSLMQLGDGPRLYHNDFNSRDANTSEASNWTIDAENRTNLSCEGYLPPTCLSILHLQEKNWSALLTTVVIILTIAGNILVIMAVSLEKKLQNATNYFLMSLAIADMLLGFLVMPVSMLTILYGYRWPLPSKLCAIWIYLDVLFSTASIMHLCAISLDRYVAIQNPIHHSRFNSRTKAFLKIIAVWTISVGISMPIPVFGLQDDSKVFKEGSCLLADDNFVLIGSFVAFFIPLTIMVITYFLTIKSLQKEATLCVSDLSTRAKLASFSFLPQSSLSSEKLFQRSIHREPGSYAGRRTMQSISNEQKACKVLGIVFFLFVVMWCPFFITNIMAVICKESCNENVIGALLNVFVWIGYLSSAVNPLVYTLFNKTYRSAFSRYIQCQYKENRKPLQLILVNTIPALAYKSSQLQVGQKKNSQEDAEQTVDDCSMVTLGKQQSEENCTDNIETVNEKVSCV
Description: (§1) Affinity for intracerebral serotonin 1A and serotonin 2 receptor was checked in accordance with the method of Hall et al. (J. Neurochem., 44, 1685-1695, 1985) and the method of Leysen et al. (Mol. Pharmacol., 21, 301-314, 1982).
(§2) Stated more specifically, the cortex and hippocampal tissue were extracted from the brain of 7-wk old S.D. line male rats, mixed with 20 volumes of Tris-HCl buffer (50 mM, pH 7.7) and homogenized with a Teflon homogenizer. Thereafter, the homogenate was centrifuged at 39800×g for 20 min and the supernatant was discarded. Forty volumes of a buffer were added to the precipitate and the mixture was homogenized with a Polytron homogenizer, with the homogenate being centrifuged under the same condition as set forth above. The same procedure was repeated two more times and the final precipitate was homogenized with 40 volumes of a buffer; thereafter, the homogenate was stored at least overnight at -80° C. On the day when binding experiments were to be conducted, the homogenate was thawed at room temperature and incubated at 37° C. for 20 min to remove the endogenous serotonin.
(§3) Thereafter, centrifugation was conducted at 39800×g for 20 min and 40 volumes of a buffer were added to the precipitate, followed by homogenization. This procedure was repeated three times; to the final precipitate, a buffer was added in 65 volumes for the case of serotonin 1A receptor and in 80 volumes for the case of serotonin 2 receptor and the mixture was homogenized in preparation for the binding experiments that are described below. All procedures of experimentation except storage in a frozen state and thawing at room temperature were conducted at 4° C. or below.
A reaction solution containing 0.5 nM (final concentration) of ^3 H-ketancerine and 500 μl of brain homogenate in 1.0 ml (final volume) of a buffer was incubated at 30° C. for 30 min. Subsequent procedures were the same as in the serotonin 1A receptor binding experiment and IC50 (M) was determined accordingly. To determine the amount of specific binding, the amount of binding in the presence of excess unlabelled methysergide ([…]) was subtracted from the total amount of binding.

serotonin 1A receptor = molecular target: T2, serotonin 1A receptor (Rattus norvegicus, UniProt P19327); experiment: Serotonin 1A receptor binding experiment (3H-8-OH-DPAT); settings: rat cortex and hippocampal tissue; 0.5 nM 3H-8-OH-DPAT; IC50 in M; read-out: -logIC50 5-HT1A (converted)
T2 construct: the cortex and hippocampal tissue were extracted from the brain; from tissue; host or cells: brain cortex and hippocampus of 7-week-old male S.D. rats, washed membrane homogenate
T2 sequence (P19327 1-422): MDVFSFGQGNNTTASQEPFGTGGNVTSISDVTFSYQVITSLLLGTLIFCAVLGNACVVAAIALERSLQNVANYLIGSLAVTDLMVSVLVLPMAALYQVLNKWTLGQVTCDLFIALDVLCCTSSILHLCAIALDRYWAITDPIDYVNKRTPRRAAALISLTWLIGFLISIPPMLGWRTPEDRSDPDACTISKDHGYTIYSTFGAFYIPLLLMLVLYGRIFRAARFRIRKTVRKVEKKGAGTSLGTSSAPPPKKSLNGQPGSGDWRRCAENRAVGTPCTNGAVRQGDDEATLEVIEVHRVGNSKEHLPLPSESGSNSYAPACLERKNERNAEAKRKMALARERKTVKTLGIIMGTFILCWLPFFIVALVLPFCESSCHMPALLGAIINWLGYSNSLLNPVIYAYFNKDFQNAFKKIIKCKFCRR
Description: as §1, §2, §3
A reaction solution containing 0.5 nM (final concentration) of 3H-8-hydroxy-2-(di-n-propylamino)tetralin (8-OH-DPAT), […] and 500 μl of brain homogenate in 1.0 ml (final volume) of a buffer was incubated at 25° C. for 30 min. Thereafter, the reaction solution was filtered by rapid passage through a glass filler. The filter was washed rapidly with an ice-cooled buffer (3 ml) three times, put into a scintillation vial together with a scintillation cocktail, and left to stand overnight at 4° C. On the next day, the vial was agitated well and measurements were conducted with a scintillation counter. To determine the amount of specific binding, the amount of binding in the presence of excess unlabeled serotonin (10 μM) was subtracted from the total amount of binding. As an index for the affinity of a test compound for either receptor, the concentration at which the specific binding of ^3 H-DPAT was inhibited by 50% (IC50, M) was determined using computer software EBDA/LIGAND (Biosoft).

S.D. line male rats [1] = experiment: Antidepressant effect, compelled swim test (Porsolt), time over which rats remain motionless; assay type: in vivo, rat; settings: peroral 20 mg/kg; for inhibition in vivo at 20 mg/kg: Rattus norvegicus, po, 0.5 h, 30 min before swim, read-out: Antidepressant effect, Efficacy
Description: An antidepression test was conducted in accordance with the method of Porsolt et al. (Europ. J. Pharmacol., 47, 379-391, 1978). Stated more specifically, 7-wk old S.D. line male rats were placed in a glass cylinder (18 cm^.phi. ×40 cm^H) for 15 min. The cylinder was filled with water (25° C.) to a depth of 15 cm. Thereafter, the rats were placed in a hot environment (32° C.) for 15 min before they were returned to the cage. Twenty-four hours later, the rats were compelled again to swim in the same cylinder for 5 min and the total time over which the rats remained motionless was measured. A test drug was administered perorally to each animal 30 min before it was compelled to swim for 5 min. Antidepressant agents are known to be capable of specifically reducing the time over which the rats would remain motionless (Psyehopharmaeol., 83, 1-16, 1984, and ibid., 94, 147-160, 1988). The antidepressant effect was calculated by the following formula: [formula]
(§4) The procedure of Test Examples 2 and 3 were repeated except that test compounds were administered perorally in a dose of 10 mg/kg.
(§5) The procedures of Test Example 2 and 3 were repeated, except that test compounds were administered perorally in a dose of 20 mg/kg to check the longevity of their antianxiety and antidepressant effects for 0.5, 2 and 4 h.

S.D. line male rats [2] = experiment: Antianxiety effect, water drinking under punishment (Vogel); assay type: in vivo, rat; settings: peroral 20 mg/kg; for change in vivo at 20 mg/kg: Rattus norvegicus, po, read-out: Antianxiety effect, Efficacy
Description: Antianxiety test was conducted in accordance with a method adapted from the method of Vogel et al. (Psychopharmacol., 21, 1-7, 1971). Stated more specifically, S.D. line male rats weighing 250-300 g were entirely kept from water for 24 h and then placed in a concrete experimental box. […] The bottom of the box was made of a stainless steel grid, from which electric shock (0.2 mA, 0.5 sec) could be applied to the limbs of rats. The test schedule was as follows: first, the rats were acclimatized to the experimental box and trained for drinking water; this was done for 3 min without electric shock. The quantity of water drunk by the rats was then measured (under non-punishment). Then, the rats were kept from drinking water for 24 h. Thereafter, the quantity of water drunk by each rat was measured (before administration of test compound) under such conditions that an electric shock was applied each time a rat drank one water drop (under punishment).Thirty minutes later, a test drug was administered perorally and after an additional 20 min, the quantity of water drunk by each rat was again measured under punishment (after administration of test compound). The quantity of water drunk by rats will decrease under punishment but it is known that the initial level can be restored by administering an antianxiety agent.
The antianxiety effect of a test compound was calculated by the following formula: [formula]
as §4, §5

IC50 (serotonin 2 receptor) [nM]	IC50 (serotonin 1A receptor) [nM]	Compound	inhibition in vivo at 20 mg/kg (S.D. line male rats [1]) [%]	change in vivo at 20 mg/kg (S.D. line male rats [2]) [%]	Antianxiety effect (S.D. line male rats [2])	Antidepressant effect (S.D. line male rats [1])
1000	3.98	C=CCN(CCNC(=O)C12CC3CC(CC(C3)C1)C2)CC1COc2cccc(C)c2O1 (stereo not shown) [Compound 9, N-{[2-(8-methyl-1,4-benzodioxan-2-ylmethyl)allylamino]ethyl}tricyclo[3,3,1^3, ^7]decane-1-carboxyamide]	–	–	–	–
1000	6.31	O=C(NCCNCC1COc2c(O)cccc2O1)C12CC3CC(CC(C3)C1)C2 (stereo not shown) [Compound 19, N-{[2-(5-hydroxy-1,4-benzodioxan-2ylmethyl)amino]ethyl)tricyclo[3,3,1,1^3, ^7]decane-1-1-carboxyamide]	–	–	–	–
200	> 31.6	Cc1cc(C)c2c(c1)OCC(CNCCNC(=O)C13CC4CC(CC(C4)C1)C3)O2 (stereo not shown) [Compound 20, N-{[2(6,8-dimethyl-1,4-benzodioxan-2ylmethyl)amino]ethyl)tricyclo[3,3,1,1^3, ^7]decane-1-carboxyamide]	–	–	–	–
316	63.1	CC(C)Cc1ccc2c(c1)OC(CNCCNC(=O)C13CC4CC(CC(C4)C1)C3)CO2 (stereo not shown) [Compound 13, N-{[2-(7-isobutyl-1,4-benzodioxan-2ylmethyl)amino]ethyl}tricyclo[3,3,1,1^3, ^7]decane-1-carboxyamide]	–	–	–	–
631	10	CCCN(CCNC(=O)C12CC3CC(CC(C3)C1)C2)CC1COc2cccc(C)c2O1 (stereo not shown) [Compound 10]	–	–	–	–
251	0.251	O=C(NCCNCC1COc2ccc(O)cc2O1)C12CC3CC(CC(C3)C1)C2 (stereo not shown) [Compound 17, N-{[2-(7-hydroxy-1,4-benzodioxan-2ylmethyl)amino]ethyl}tricyclo[3,3,^3, ^7]decane-1-carboxyamide]	–	66.6 ± 8.7	comparable effects to MDL-73005	–
> 1000	158	Cc1cccc2c1OC(CN(CCNC(=O)C13CC4CC(CC(C4)C1)C3)Cc1ccccc1)CO2 (stereo not shown) [Compound a, N-{[2-(8-methyl 1,4-benzodioxan-2-ylmethyl)benzylamino]ethyl}tricyclo[3,3,1,^3, ^7]decane-1-carboxyamide]	–	–	–	–

The remaining lines, values behind:

Compound	IC50 (serotonin 2 receptor) [nM]	IC50 (serotonin 1A receptor) [nM]	inhibition in vivo at 20 mg/kg (S.D. line male rats [1]) [%]	change in vivo at 20 mg/kg (S.D. line male rats [2]) [%]	Antianxiety effect (S.D. line male rats [2])	Antidepressant effect (S.D. line male rats [1])
COc1ccc2c(c1)OC(CNCCNC(=O)C13CC4CC(CC(C4)C1)C3)CO2 (stereo not shown) [Compound 14, N-{[2-(7-methoxy-1,4-benzodioxan-2-ylmethyl)amino]ethyl}tricyclo[3,3,1,1^3, ^7]decane-1-carboxyamide]	25.1	0.398	46.9 ± 7.1	–	–	–
Cc1ccc(C)c2c1OCC(CNCCNC(=O)C13CC4CC(CC(C4)C1)C3)O2 (stereo not shown) [Compound 11, N-{[2-(5,8-dimethyl-1,4-benzodioxan-2-ylmethyl)amino]ethyl}tricyclo[3,3,1^3, ^7]decane-1-carboxyamide]	79.4	3.98	–	–	–	–
Cc1ccc2c(c1)OCC(CNCCNC(=O)C13CC4CC(CC(C4)C1)C3)O2 (stereo not shown) [Compound 3, N-{[2-(6-methyl-1,4-benzodioxan-2ylmethyl)amino]ethyl}tricyclo[3,3,1,1^3, ^7]decane-1-carboxyamide]	23.4	2.51	56.8 ± 9	63.9 ± 6.8	comparable effects to MDL-73005	almost comparable effects to WY-50324
COc1cccc2c1OCC(CNCCNC(=O)C13CC4CC(CC(C4)C1)C3)O2 (stereo not shown) [Compound 6, N-{[2-(5-methoxy-1,4-benzodioxan-2-ylmethyl)amino]ethyl}tricyclo[3,3,1^3, ^7]decane-1-carboxyamide]	75.9	4.07	82.2 ± 6.6	28.7 ± 9.5	–	better antidepressant effects than WY-50324
COc1cccc2c1OC(CNCCNC(=O)C13CC4CC(CC(C4)C1)C3)CO2 (stereo not shown) [Compound 5, N-{[2-(8-methoxy-1,4-benzodioxan-2ylmethyl)amino]ethyl}tricyclo[3,3,1,1^3'7]decane-1-carboxyamide]	10	0.347	97.6 ± 0.9	40.9 ± 7.3	almost comparable effects to WY-50324	better antidepressant effects than WY-50324
Cc1cccc2c1OC(CNCCNC(=O)C13CC4CC(CC(C4)C1)C3)CO2 (single isomer, unassigned; (+)) [Compound 8, (+)-N-{[2-(8-methyl-1,4-benzodioxan-2ylmethyl)amino]ethyl}tricyclo[3,3,1,1^3, ^7]decane-1-carboxyamide hydrochloride]	50.1	6.31	–	–	–	–
CC(=O)c1cccc2c1OC(CNCCNC(=O)C13CC4CC(CC(C4)C1)C3)CO2 (stereo not shown) [Compound 15, N-{[2-(8-acetyl-1,4benzodioxan-2ylmethyl)amino]ethyl}tricyclo[3,3,1,1^3, ^7]decane-1-carboxyamide]	63.1	3.16	–	–	–	–
O=C(NCCNCC1COc2cc(O)ccc2O1)C12CC3CC(CC(C3)C1)C2 (stereo not shown) [Compound 16, N-{[2-(6-hydroxy-1,4-benzodioxan-2ylmethyl)amino]ethyl}tricyclo[3,3,1,1^3, ^7]decane-1-carboxyamide]	158	2.51	–	46.5 ± 4.7	almost comparable effects to WY-50324	–
